Data from patent publication US20250017914A1, “6-AZA-QUINOLINE DERIVATIVES AND RELATED USES” (Black Diamond Therapeutics, Inc., priority 2021, published 2025).

Target: T1, BaF3 BRAF-KIAA1549 fusion cells (Homo sapiens, UniProt P15056)
T1 construct: The BRAF-KIAA1549 fusion mutant was subcloned into pMXs-IRES-Blasticidin (RTV-016, Cell Biolabs, San Diego, CA); No tag given; Q9HCM3 (UPF0606 protein KIAA1549)
Experiment: BaF3 BRAF-KIAA1549 fusion cell proliferation assay (CellTiterGlo, 96 hours)
Format: cell-based
Summary of the method: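 BaF3 cells retrovirally transduced with BRAF-KIAA1549 fusion and blasticidin-selected were plated at 7×10^4 c/well in RPMI, 10% heat-inactivated FBS, 1% L-glutamine, and exposed to compound for 96 hours. Growth was read as ATP content by CellTiterGlo luminescence. IC50 was fitted by Levenberg-Marquardt, normalised to DMSO-treated cells.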

T1 sequence (P15056 whole entry, change not shown, the tested form may be a part): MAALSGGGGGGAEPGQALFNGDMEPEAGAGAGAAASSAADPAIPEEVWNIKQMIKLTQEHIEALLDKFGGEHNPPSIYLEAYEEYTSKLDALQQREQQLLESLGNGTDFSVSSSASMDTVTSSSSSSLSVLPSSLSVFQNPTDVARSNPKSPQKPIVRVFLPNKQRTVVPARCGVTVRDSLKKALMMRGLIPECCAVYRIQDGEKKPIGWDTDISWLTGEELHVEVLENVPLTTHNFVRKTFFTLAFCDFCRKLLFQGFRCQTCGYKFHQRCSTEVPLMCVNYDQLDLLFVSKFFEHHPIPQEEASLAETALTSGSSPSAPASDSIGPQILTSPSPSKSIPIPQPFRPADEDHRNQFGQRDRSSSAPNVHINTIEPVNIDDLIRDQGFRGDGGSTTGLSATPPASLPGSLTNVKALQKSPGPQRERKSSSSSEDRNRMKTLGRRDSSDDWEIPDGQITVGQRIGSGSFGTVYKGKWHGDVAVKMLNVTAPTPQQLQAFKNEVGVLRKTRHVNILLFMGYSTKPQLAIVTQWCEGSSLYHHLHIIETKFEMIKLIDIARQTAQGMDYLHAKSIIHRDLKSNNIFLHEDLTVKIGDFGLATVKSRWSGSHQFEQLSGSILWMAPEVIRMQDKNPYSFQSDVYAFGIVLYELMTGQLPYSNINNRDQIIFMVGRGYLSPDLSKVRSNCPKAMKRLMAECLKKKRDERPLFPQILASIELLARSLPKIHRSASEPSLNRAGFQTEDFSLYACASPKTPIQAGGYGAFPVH

SMILES | GI50 (Table A1) [µM] | GI50 (Table A2) [µM]
CNc1cc2ncc(-c3cc(NC(=N)c4cc(C(F)(F)F)ccn4)cnc3C)cc2cn1 [Compound 64, N-(6-Methyl-5-(7-(methylamino)-1,6-naphthyridin-3-yl)pyridin-3-yl)-4-(trifluoromethyl)picolinimidamide] | ≥ 0.5 | 
CNc1cc2ncc(-c3cc(NC(=O)c4cc(C(C)(C)F)ccn4)cnc3C)cc2cn1 [Compound 65, 4-(2-Fluoropropan-2-yl)-N-(6-methyl-5-(7-(methylamino)-1,6-naphthyridin-3-yl)pyridin-3-yl)picolinamide] | 0.02 to 0.1 | 
CNc1cc2ncc(-c3cc(NC(=O)c4cc(C(F)F)c(F)cn4)cnc3C)cc2cn1 [Compound 66, 4-(Difluoromethyl)-5-fluoro-N-(6-methyl-5-(7-(methylamino)-1,6-naphthyridin-3-yl)pyridin-3-yl)picolinamide] | 0.02 to 0.1 | 
CNc1cc2ncc(-c3cc(NC(=O)c4cc(C(F)(F)F)c(OCCO)cn4)ccc3C)cc2cn1 [Compound 71, 5-(2-hydroxyethoxy)-N-(4-methyl-3-(7-(methylamino)-1,6-naphthyridin-3-yl)phenyl)-4-(trifluoromethyl)picolinamide] | 0.02 to 0.1 | 
CNc1cc2ncc(-c3cc(NC(=O)c4ccc(OC(F)F)cn4)cnc3C)cc2cn1 [Compound 72, 5-(Difluoromethoxy)-N-(6-methyl-5-(7-(methylamino)-1,6-naphthyridin-3-yl)pyridin-3-yl)picolinamide] | ≥ 0.5 | 
CNc1cc2ncc(-c3cc(NC(=O)c4cc(C(F)(F)F)ccn4)nnc3C)cc2cn1 [Compound 75, N-(6-methyl-5-(7-(methylamino)-1,6-naphthyridin-3-yl)pyridazin-3-yl)-4-(trifluoromethyl)picolinamide] | 0.02 to 0.1 | 
CNc1cc2ncc(-c3cc(NC(=O)c4cc(C(C)(C)C#N)ccn4)nnc3C)cc2cn1 [Compound 77, 4-(2-cyanopropan-2-yl)-N-(6-methyl-5-(7-(methylamino)-1,6-naphthyridin-3-yl)pyridazin-3-yl)picolinamide] | 0.02 to 0.1 | 
Cc1ccc(NC(=O)c2cc(C(F)F)ccn2)cc1-c1cnc2cc(NCCC#N)ncc2c1 [Compound 78, N-(3-(7-((2-cyanoethyl)amino)-1,6-naphthyridin-3-yl)-4-methylphenyl)-4-(difluoromethyl)picolinamide] | 0.02 to 0.1 | 
CNc1cc2nc(C#N)c(-c3cc(NC(=O)c4ccnc(C(F)(F)F)c4)ccc3C)cc2cn1 [Compound 79, N-(3-(2-cyano-7-(methylamino)-1,6-naphthyridin-3-yl)-4-methylphenyl)-2-(trifluoromethyl)isonicotinamide] | < 0.02 | 
CCNc1cc2ncc(-c3cc(NC(=O)c4ccnc(C5(F)CC5)c4)ccc3C)cc2cn1 [Compound 153, N-(3-(7-(ethylamino)-1,6-naphthyridin-3-yl)-4-methylphenyl)-2-(1-fluorocyclopropyl)isonicotinamide] | 0.02 to 0.1 | 
Cc1ccc(NC(=O)c2ccnc(C3(F)CC3)c2)cc1-c1cnc2cc(N)ncc2c1 [Compound 154, N-(3-(7-amino-1,6-naphthyridin-3-yl)-4-methylphenyl)-2-(1-fluorocyclopropyl)isonicotinamide] | < 0.02 | 
CCNc1cc2ncc(-c3cc(NC(=O)c4cc(C(C)(C)C#N)ccn4)cnc3C)cc2cn1 [Compound 175, 4-(2-cyanopropan-2-yl)-N-(5-(7-(ethylamino)-1,6-naphthyridin-3-yl)-6-methylpyridin-3-yl)picolinamide] | 0.02 to 0.1 | 
Cc1ncc(NC(=O)c2cc(C(C)(C)C#N)ccn2)cc1-c1cnc2cc(N)ncc2c1 [Compound 176, N-(5-(7-amino-1,6-naphthyridin-3-yl)-6-methylpyridin-3-yl)-4-(2-cyanopropan-2-yl)picolinamide] | 0.02 to 0.1 | 
CNc1cc2ncc(-c3cc(NC(=O)N(C)c4cc(C(F)F)ccn4)ccc3C)cc2cn1 [Compound 189, 1-(4-(difluoromethyl)pyridin-2-yl)-1-methyl-3-(4-methyl-3-(7-(methylamino)-1,6-naphthyridin-3-yl)phenyl)urea] |  | 0.1 to 0.5
CNc1cc2ncc(-c3cc(NC(=O)N(C)c4ccnc(C(F)F)c4)cnc3C)cc2cn1 [Compound 190, 1-(2-(difluoromethyl)pyridin-4-yl)-1-methyl-3-(6-methyl-5-(7-(methylamino)-1,6-naphthyridin-3-yl)pyridin-3-yl)urea] |  | 0.1 to 0.5
CNc1cc2ncc(-c3cc(NC(=O)c4cccc(C5(C#N)CC5)c4)cnc3C)cc2cn1 [Compound 191, 3-(1-cyanocyclopropyl)-N-(6-methyl-5-(7-(methylamino)-1,6-naphthyridin-3-yl)pyridin-3-yl)benzamide] |  | 0.02 to 0.1
CNc1ncc2cc(-c3cc(NC(=O)c4ccnc(C(C)(C)C#N)c4)cnc3C)cnc2c1C#N [Compound 192, N-[5-[8-cyano-7-(methylamino)-1,6-naphthyridin-3-yl]-6-methyl-3-pyridyl]-2-(1-cyano-1-methyl-ethyl)pyridine-4-carboxamide] |  | 0.1 to 0.5

SMILES | GI50 (Table A1) [µM] | GI50 (Table A2) [µM]
CNc1cc2ncc(-c3cc(NC(=O)c4cccc(C(C)(C)C#N)c4)ccc3C)cc2cn1 [Compound 193, 3-(2-cyanopropan-2-yl)-N-(4-methyl-3-(7-(methylamino)-1,6-naphthyridin-3-yl)phenyl)benzamide] |  | < 0.02
CNc1cc2ncc(-c3cc(NC(=O)c4c[nH]c5ccccc45)cnc3C)cc2cn1 [Compound 194, N-(6-methyl-5-(7-(methylamino)-1,6-naphthyridin-3-yl)pyridin-3-yl)-1H-indole-3-carboxamide] |  | 0.02 to 0.1
CNc1cc2ncc(-c3cc(NC(=O)c4cnc5n4CCC(C)C5)ccc3C)cc2cn1 (stereo not drawn) [Compound 195, 7-methyl-N-(4-methyl-3-(7-(methylamino)-1,6-naphthyridin-3-yl)phenyl)-5,6,7,8-tetrahydroimidazo[1,2-a]pyridine-3-carboxamide] |  | ≥ 0.5
CNc1cc2ncc(-c3cc(C(=O)Nc4cccc(C(C)(C)C#N)c4)cnn3)cc2cn1 [Compound 196, N-(3-(2-cyanopropan-2-yl)phenyl)-6-(7-(methylamino)-1,6-naphthyridin-3-yl)pyridazine-4-carboxamide] |  | ≥ 0.5
CNc1cc2ncc(-c3c(C)ncc(NC(=O)c4cc(C(C)(C)C#N)ccn4)c3Cl)cc2cn1 [Compound 197, N-[4-chloro-6-methyl-5-[7-(methylamino)-1,6-naphthyridin-3-yl]-3-pyridyl]-4-(1-cyano-1-methyl-ethyl)pyridine-2-carboxamide] |  | ≥ 0.5
CNc1cc2ncc(-c3cc(NC(=O)c4cccc5c4CCCC5=O)cnc3C)cc2cn1 [Compound 198, N-(6-methyl-5-(7-(methylamino)-1,6-naphthyridin-3-yl)pyridin-3-yl)-5-oxo-5,6,7,8-tetrahydronaphthalene-1-carboxamide] |  | ≥ 0.5
CNc1cc2ncc(-c3cc(NC(=O)c4cccc5c4CCCC5O)cnc3C)cc2cn1 (stereo not drawn) [Compound 199, 5-hydroxy-N-(6-methyl-5-(7-(methylamino)-1,6-naphthyridin-3-yl)pyridin-3-yl)-5,6,7,8-tetrahydronaphthalene-1-carboxamide] |  | ≥ 0.5
CNc1cc2ncc(-c3cc(NC(=O)c4cccc(C(C)(F)F)c4)cnc3C)cc2cn1 [Compound 200, 3-(1,1-difluoroethyl)-N-(6-methyl-5-(7-(methylamino)-1,6-naphthyridin-3-yl)pyridin-3-yl)benzamide] |  | < 0.02
CNc1cc2ncc(-c3cc(NC(=O)c4cc(C(O)C5CC5)ccn4)cnc3C)cc2cn1 (stereo not drawn) [Compound 201, 4-(cyclopropyl(hydroxy)methyl)-N-(6-methyl-5-(7-(methylamino)-1,6-naphthyridin-3-yl)pyridin-3-yl)picolinamide] |  | 0.02 to 0.1
CNc1cc2ncc(-c3cc(NC(=O)c4cc(C(O)C(C)C)ccn4)cnc3C)cc2cn1 (stereo not drawn) [Compound 202, 4-(1-hydroxy-2-methylpropyl)-N-(6-methyl-5-(7-(methylamino)-1,6-naphthyridin-3-yl)pyridin-3-yl)picolinamide] |  | 0.02 to 0.1
CNc1cc2ncc(-c3cc(NC(=O)c4cc(C(NC)C(F)(F)F)ccn4)ccc3C)cc2cn1 (stereo not drawn) [Compound 203, N-(4-methyl-3-(7-(methylamino)-1,6-naphthyridin-3-yl)phenyl)-4-(2,2,2-trifluoro-1-(methylamino)ethyl)picolinamide] |  | < 0.02
CNc1cc2ncc(-c3cc(NC(=O)c4cnc5n4CC(C)CC5)ccc3C)cc2cn1 (stereo not drawn) [Compound 204, 6-methyl-N-(4-methyl-3-(7-(methylamino)-1,6-naphthyridin-3-yl)phenyl)-5,6,7,8-tetrahydroimidazo[1,2-a]pyridine-3-carboxamide] |  | < 0.02
CNc1cc2ncc(-c3cc(NC(=O)c4cnc5n4C(C)CCC5)ccc3C)cc2cn1 (stereo not drawn) [Compound 205, 5-methyl-N-(4-methyl-3-(7-(methylamino)-1,6-naphthyridin-3-yl)phenyl)-5,6,7,8-tetrahydroimidazo[1,2-a]pyridine-3-carboxamide] |  | 0.1 to 0.5
CNc1cc2ncc(-c3cc(NC(=O)c4cc(C(O)(O)C(F)(F)F)ccn4)cnc3C)cc2cn1 [Compound 206, N-(6-methyl-5-(7-(methylamino)-1,6-naphthyridin-3-yl)pyridin-3-yl)-4-(2,2,2-trifluoro-1,1-dihydroxyethyl)picolinamide] |  | 0.02 to 0.1
CNc1cc2ncc(-c3cc(NC(=O)c4cnc5n4CCCC5)cnc3C)cc2cn1 [Compound 209, N-(6-methyl-5-(7-(methylamino)-1,6-naphthyridin-3-yl)pyridin-3-yl)-5,6,7,8-tetrahydroimidazo[1,2-a]pyridine-3-carboxamide] |  | ≥ 0.5
CNc1cc2ncc(-c3cc(NC(=O)c4cccc(C(O)C(F)(F)F)n4)cnc3C)cc2cn1 (stereo not drawn) [Compound 210, N-(6-methyl-5-(7-(methylamino)-1,6-naphthyridin-3-yl)pyridin-3-yl)-6-(2,2,2-trifluoro-1-hydroxyethyl)picolinamide] |  | ≥ 0.5
